pIC50: −log10 of the molar value. Values after ≈ are worked out from the molar mass of the structure shown. Values joined by “and” are separate entries in the source; they are usually repeats but may differ in a detail not shown here. Identical values can stand only once. Like-named read-outs stand apart in the source and are kept apart here.
How the values were obtained:
SKBR3 = test: Inhibition of cancer cell growth as measured by cell number, SKBR3; type: cell-based, human; conditions: Table 8; for IC50: Homo sapiens;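 as to all read-outs here: SK-BR-3 cells were selected as a line overexpressing HER2/neu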
Source text: (§1) The cell lines were chosen since they overexpressed epidermal growth factor receptor (EGFR) (i.e. A431) or HER2/neu (SKBR3), or had little to no expression of the these receptors (SW620, LOX, MCF7).

A431 = test: Inhibition of cancer cell growth as measured by cell number, A431; type: cell-based, human; conditions: Table 8; for IC50: Homo sapiens, A-431, 48 h;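 as to all read-outs here: human A431 line, picked because it overexpresses epidermal growth factor receptor (EGFR)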
Source text: as §1

MCF7 = test: Inhibition of cancer cell growth as measured by cell number, MCF7; type: cell-based, human; conditions: Table 8; for IC50: Homo sapiens, MCF7, 48 h;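 as to all read-outs here: MCF7 was included as a line with little or no EGFR or HER2/neu expression, in contrast to the receptor-overexpressing lines of the panel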
Source text: as §1

SW620 = test: Inhibition of cancer cell growth as measured by cell number, SW620; type: cell-based, human; conditions: Homo sapiens, SW-620, 48 h, Table 8;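 also: SW620 was included as a cell line with little or no EGFR or HER2/neu expression, in contrast to receptor-overexpressing lines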
Source text: as §1

LOX = test: Inhibition of cancer cell growth as measured by cell number, LOX; type: cell-based, human; conditions: Homo sapiens, LOX, 48 h, Table 8;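 also: LOX cells served as a line with low or absent EGFR and HER2/neu expression, in contrast to receptor-overexpressing lines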
Source text: as §1

[1] = target: T1, His-tagged cytoplasmic domain of EGFR (Homo sapiens, UniProt P00533); test: Inhibition of Epidermal Growth Factor Receptor Kinase (EGF-R) using recombinant enzyme; type: biochemical; conditions: recombinant enzyme; RR-SRC peptide; average of the number of tests; read-out: IC50;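 also: radiometric kinase assay measuring radiolabeled phosphate transfer from ATP onto the peptide tyrosine by scintillation counting, control is reaction without compound, background subtracted, IC50 from dose-response curve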
T1 construct: containing the EGFR cDNA encoding amino acids 645 - 1186 preceded by Met-Ala-(His)6; made in house; host or cells: Sf9 cells, recombinant baculovirus vHcEGFR52

[2] = target: recombinant human MEK 1 (MAPKK) and recombinant human ERK2 (MAPK); test: Mitogen Activated Protein Kinase (MAPK) assay, two component coupled MEK 1 / ERK2; type: biochemical; conditions: separate entries for the same compound = evaluated more than one time;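 also: MEK 1-activated ERK2 phosphorylates MBP or Myc peptide with 33P-ATP, filter capture and scintillation counting, inhibitor preincubated with ERK2 30 min at 0 °C, inhibition relative to uninhibited control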
[3] = SK-BR-3, cell number, Sulforhodamine B, 48 hours exposure, read-out: IC50 SKBR3
[4] = cell number, Sulforhodamine B, 48 hours exposure, read-out: IC50 A431
[5] = cell number, Sulforhodamine B, 48 hours exposure, read-out: IC50 MCF7
[6] = cell number, Sulforhodamine B, 48 hours exposure, read-out: IC50 SW620
[7] = cell number, Sulforhodamine B, 48 hours exposure, read-out: IC50 LOX
[8] = read-out: IC50 A431, cell number, Sulforhodamine B, 48 hours exposure
[9] = cell number, Sulforhodamine B, 48 hours exposure
[10] = read-out: IC50 MCF7, cell number, Sulforhodamine B, 48 hours exposure
[11] = SK-BR-3, 48 h, read-out: IC50 SKBR3, cell number, Sulforhodamine B, 48 hours exposure
[12] = read-out: IC50 SW620, cell number, Sulforhodamine B, 48 hours exposure
[13] = read-out: IC50 LOX, cell number, Sulforhodamine B, 48 hours exposure

T1 sequence (P00533 669-1210): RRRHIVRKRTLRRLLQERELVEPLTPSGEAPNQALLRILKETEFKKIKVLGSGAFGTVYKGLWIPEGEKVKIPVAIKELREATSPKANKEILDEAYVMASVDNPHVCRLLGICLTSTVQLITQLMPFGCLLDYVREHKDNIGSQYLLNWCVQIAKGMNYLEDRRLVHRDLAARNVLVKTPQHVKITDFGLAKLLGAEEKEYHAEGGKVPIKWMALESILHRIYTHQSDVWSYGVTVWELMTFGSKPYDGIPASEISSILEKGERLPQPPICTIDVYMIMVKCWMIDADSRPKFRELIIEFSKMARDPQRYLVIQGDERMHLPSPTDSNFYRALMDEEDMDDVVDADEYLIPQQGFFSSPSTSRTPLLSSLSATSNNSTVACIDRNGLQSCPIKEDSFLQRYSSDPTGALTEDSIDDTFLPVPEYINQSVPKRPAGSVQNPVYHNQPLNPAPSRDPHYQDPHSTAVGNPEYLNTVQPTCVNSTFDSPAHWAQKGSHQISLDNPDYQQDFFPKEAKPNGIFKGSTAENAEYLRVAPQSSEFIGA

| Compound | IC50 (SKBR3; [3]) [µg/mL] | IC50 (A431; [4]) [µg/mL] | IC50 (MCF7; [5]) [µg/mL] | IC50 (SW620; [6]) [µg/mL] | IC50 (LOX; [7]) [µg/mL] | IC50 (A431; [8]) [µg/mL] | IC50 A431 (A431; [9]) | IC50 (MCF7; [10]) [µg/mL] | IC50 MCF7 (MCF7; [9]) [µg/mL] | pIC50 [1] | IC50 (SKBR3; [11]) [µg/mL] | pIC50 [2] | IC50 (SW620; [12]) [µg/mL] | IC50 (LOX; [13]) [µg/mL] | IC50 SKBR3 (SKBR3; [9]) [µg/mL] |
| --- | --- | --- | --- | --- | --- | --- | --- | --- | --- | --- | --- | --- | --- | --- | --- |
| CC(C)(C)[Si](C)(C)OCC#CC(=O)Nc1ccc2ncc(C#N)c(Nc3cccc(Br)c3)c2c1 [Example 331, N-[4-[(3-Bromophenyl)amino]-3-cyano-6-quinolinyl]-4-t-butyldimethylsiloxy-2-butynamide] | 0.16 (≈ 0.299 µM) | 0.03 (≈ 0.056 µM) | 0.44 (≈ 0.822 µM) | 0.04 (≈ 0.0747 µM) | 0.04 (≈ 0.0747 µM) |  |  |  |  |  |  |  |  |  |  |
| CCN1CCN(CC#CC(=O)Nc2ccc3ncc(C#N)c(Nc4cccc(Br)c4)c3c2)CC1 [Example 188, N-[4-[(3-Bromophenyl)amino]-3-cyano-6-quinolinyl]-4-(N-ethylpiperazino)-2-butynamide] |  |  |  |  |  | 0.54 (≈ 1.04 µM) | 0.4 µg/mL and 0.579 µg/mL | 1.43 (≈ 2.76 µM) | 0.8 (≈ 1.55 µM) | 9.00 |  |  |  |  |  |
| CN(C)Cc1cc([N+](=O)[O-])cc2c(Nc3cccc(Br)c3)c(C#N)cnc12 [Example 108, 4-[(3-Bromophenyl)amino]-8-dimethylaminomethyl-6-nitro-3-quinolinecarbonitrile] |  |  |  |  |  | 6.6 (≈ 15.5 µM) |  | 7.97 (≈ 18.7 µM) |  |  | 6.34 (≈ 14.9 µM) | < 4.00 | 14.6 (≈ 34.1 µM) | 6.85 (≈ 16.1 µM) |  |
| N#Cc1cnc2ccc(N)cc2c1Nc1ccc(Sc2ccccc2)c(Cl)c1 [Example 158, 6-Amino-4-[(3-chloro-4-thiophenoxyphenyl)amino]-3-quinolinecarbonitrile] |  |  |  |  |  | 2.97 (≈ 7.37 µM) |  | 5.44 (≈ 13.5 µM) |  |  | 0.8 (≈ 1.99 µM) |  | 4.08 (≈ 10.1 µM) | 2.44 (≈ 6.06 µM) |  |
| N#Cc1cccc(Nc2c(C#N)cnc3ccc([N+](=O)[O-])cc23)c1 [Example 163, 4-[(3-Cyanophenyl)amino]-6-nitro-3-quinolinecarbonitrile] |  |  |  |  |  | 7.02 (≈ 22.3 µM) |  | 17.4 (≈ 55.3 µM) |  |  | 7.28 (≈ 23.1 µM) | < 4.00 | 47.3 (≈ 150 µM) | 64.2 (≈ 204 µM) |  |
| C=CC(=O)Nc1ccc2ncc(C#N)c(Nc3cccc(OC)c3)c2c1 [Example 138, N-{3-Cyano-4-[(3-methoxyphenyl)amino]-6-quinolinyl}-2-propenamide] |  |  |  |  |  | 0.44 (≈ 1.28 µM) |  | 3.51 (≈ 10.2 µM) |  | 8.46 | < 0.01 |  | 3.52 (≈ 10.2 µM) | 1.12 (≈ 3.25 µM) |  |
| C#Cc1cccc(Nc2c(C#N)cnc3ccc(NC(=O)C#CC)cc23)c1 [Example 164, N-{3-Cyano-4-[(3-ethynylphenyl)amino]-6-quinolinyl}-2-butynamide] |  |  |  |  |  | 0.6 (≈ 1.71 µM) | 0.322 µg/mL (≈ 0.919 µM) | 57 (≈ 163 µM) |  | 7.05 | 0.7 (≈ 2 µM) | < 4.00 |  | 0.9 (≈ 2.57 µM) | 0.684 (≈ 1.95 µM) |
| C#Cc1cccc(Nc2c(C#N)cnc3ccc(N)cc23)c1 [Example 167, 6-Amino-4-[(3-ethynylphenyl)amino]-3-quinolinecarbonitrile] |  |  |  |  |  | 2.6 (≈ 9.14 µM) |  | 8.5 (≈ 29.9 µM) |  |  | 3.7 (≈ 13 µM) | < 4.00 | 8.1 (≈ 28.5 µM) | 5.3 (≈ 18.6 µM) |  |
| C=CC(=O)Nc1ccc2ncc(C#N)c(Nc3ccc(N(C)C)cc3)c2c1 [Example 392, N-[3-Cyano-4-(4-dimethylaminophenylamino)quinolin-6-yl]acrylamide] | 2.61 (≈ 7.3 µM) | 0.46 (≈ 1.29 µM) | 3.66 (≈ 10.2 µM) | 73.3 (≈ 205 µM) | 1.99 (≈ 5.57 µM) |  |  |  |  |  |  | 4.40 |  |  |  |
| CC#CC(=O)Nc1cc(CN(C)C)c2ncc(C#N)c(Nc3cccc(Br)c3)c2c1 [Example 110, N-{4-[(3-Bromophenyl)amino]-3-cyano-8-dimethylaminomethyl-6-quinolinyl} -2-butynamide] |  |  |  |  |  | 0.9 (≈ 1.95 µM) |  |  |  |  | 1.3 (≈ 2.81 µM) | 4.40 | 0.7 (≈ 1.51 µM) | 0.8 (≈ 1.73 µM) |  |
| C#Cc1cccc(Nc2c(C#N)cnc3ccc([N+](=O)[O-])cc23)c1 [Example 168, 4-[(3-Ethynylphenyl)amino]-6-nitro-3-quinolinecarbonitrile] |  |  |  |  |  | 1.57 (≈ 5 µM) |  | 5.94 (≈ 18.9 µM) |  |  | 1.38 (≈ 4.39 µM) | 4.10 | 9.1 (≈ 29 µM) | 1.76 (≈ 5.6 µM) |  |
| N#Cc1cccc(Nc2c(C#N)cnc3ccc(N)cc23)c1 [Example 162, 6-Amino-4-[(3-cyanophenyl)amino]-3-quinolinecarbonitrile] |  |  |  |  |  | 6.87 (≈ 24.1 µM) |  | 16.4 (≈ 57.3 µM) |  |  | 7.15 (≈ 25.1 µM) | 4.46 | 33.5 (≈ 118 µM) | 8.13 (≈ 28.5 µM) |  |
